To fix the notation:
B1: 63-215: peptide of positions 63 to 215 of HMGB1, produced using HEK293 (protein, UniProt P63158 63-215, looked up, fragment)
chain: MAKADKARYEREMKTYIPPKGETKKKFKDPNAPKRPPSAFFLFCSEYRPKIKGEHPGLSIGDVAKKLGEMWNNTAADDKQPYEKKAAKLKEKYEKDIAAYRAKGKPDAAKKGVVKAEKSKKKKEEEDDEEDEEDEEEEEEEEDEDEEEDDDDE
B2: 45-215: peptide of positions 45 to 215 of HMGB1, produced using HEK293 (protein, UniProt P09429 45-215, looked up, fragment)
chain: CSERWKTMSAKEKGKFEDMAKADKARYEREMKTYIPPKGETKKKFKDPNAPKRPPSAFFLFCSEYRPKIKGEHPGLSIGDVAKKLGEMWNNTAADDKQPYEKKAAKLKEKYEKDIAAYRAKGKPDAAKKGVVKAEKSKKKKEEEEDEEDEEDEEEEEDEEDEDEEEDDDDE
B3: 1-62: peptide comprising the amino acid sequence of positions 1 to 62, produced using HEK293 (protein, UniProt P63158 1-62, looked up, fragment)
chain: MGKGDPKKPRGKMSSYAFFVQTCREEHKKKHPDASVNFSEFSKKCSERWKTMSAKEKGKFED
B4: 85-169: peptide of positions 85 to 169 of mouse HMGB1, produced using HEK293 (protein, UniProt P63158 85-169, looked up, fragment)
chain: TKKKFKDPNAPKRPPSAFFLFCSEYRPKIKGEHPGLSIGDVAKKLGEMWNNTAADDKQPYEKKAAKLKEKYEKDIAAYRAKGKPD
B5: 1-84: peptide of positions 1 to 84 of mouse HMGB1, produced using HEK293 (protein, UniProt P63158 1-84, looked up, fragment)
chain: MGKGDPKKPRGKMSSYAFFVQTCREEHKKKHPDASVNFSEFSKKCSERWKTMSAKEKGKFEDMAKADKARYEREMKTYIPPKGE

18 molecules from patent US10550165B2, “Peptide for inducing regeneration of tissue and use thereof” (STEMRIM INC., priority 2011, dated 2020) can be followed below.

Entries after “also recorded” stand apart in the source; their conditions may differ.

The first test deals with mouse bone marrow mesenchymal stem cell line (MSC-1 cells), PDGFRα-positive. The experiment in a line: Migration assay (Boyden / 48-well chemotaxis chamber) on bone marrow mesenchymal stem cell line MSC-1. It is filed as cell-based. Particulars: peptides produced using HEK293, 5, 15 and 25 μg/ml, FIG. 3. The protocol:
Cells of a mouse bone marrow mesenchymal stem cell line (MSC-1 cells, established by Tamai et al. of Osaka University (PDGFRα-positive cells in bone marrow are mobilized by high mobility group box 1 (HMGB1) to regenerate injured epithelia. (Tamai et al., Proc Natl Acad Sci USA. Apr. 4, 2011))) were detached from dishes using trypsin, and collected by centrifugation at 1200 rpm and 4° C. for 10 minutes. The resulting pellet was loosened and suspended at a cell concentration of 2.0×10^6 to 3.0×10^6 cells/ml by adding Dulbecco's Modified Eagle Medium (D-MEM) containing 10% fetal bovine serum (FBS). The recombinant protein and peptides produced in HEK293 were diluted with D-MEM containing 10% FBS. The negative control used was phosphate buffered saline (PBS). An acrylic Boyden chamber was used; cells of the mouse bone marrow mesenchymal stem cell line prepared at a cell concentration of 3×10^6 cells/ml were placed in its upper layer, while a diluted protein or peptide is added to the bottom layer. More specifically, a 28 μl aliquot of a protein or peptide solution was added to each well of the bottom plate of a 48-well chemotaxis chamber (NEURO PROBE 48WELL CHEMOTAXIS CHAMBER), and a polycarbonate membrane with 8 μm pores (Neuro Probe, Inc, Cat: 866-417-0014) was placed on the bottom plate. Then, an upper plate was placed on the membrane and screwed tightly. 50 μl of cells of the mouse bone marrow mesenchymal stem cell line after concentration adjustment were added to the upper plate wells. The chamber was placed in an incubator under 5% CO2 at 37° C. After four hours, the membrane was removed from the chamber and stained with Diff-Quik (Sysmex, Cat: 16920) to detect cells that migrated through membrane pores to the lower compartment.
The peptides listed below were custom synthesized using the solid phase method by Medical & Biological Laboratories (MBL). The peptides were synthesized based on the mouse HMGB1 sequence (SEQ ID NO: 3). Synthetic peptides described in subsequent Examples were also prepared based on the mouse HMGB1 sequence. • A synthetic peptide consisting of the amino acid sequence from positions 1 to 10 of HMGB1 (1-10); • a synthetic peptide consisting of the amino acid sequence from positions 1 to 34 of HMGB1 (1-34); • a synthetic peptide consisting of the amino acid sequence from positions 37 to 62 of HMGB1 (37-62); • a synthetic peptide consisting of the amino acid sequence from positions 27 to 62 of HMGB1 (27-62); • a synthetic peptide consisting of the amino acid sequence from positions 56 to 72 of HMGB1 (56-72); • a synthetic peptide consisting of the amino acid sequence from positions 11 to 20 of HMGB1 (11-20); • a synthetic peptide consisting of the amino acid sequence from positions 11 to 25 of HMGB1 (11-25); • a synthetic peptide consisting of the amino acid sequence from positions 11 to 30 of HMGB1 (11-30); • a synthetic peptide consisting of the amino acid sequence from positions 11 to 34 of HMGB1 (11-34); • a synthetic peptide consisting of the amino acid sequence from positions 11 to 44 of HMGB1 (11-44); • a synthetic peptide consisting of the amino acid sequence from positions 17 to 44 of HMGB1 (17-44); • a synthetic peptide consisting of the amino acid sequence from positions 1 to 25 of HMGB1 (1-25); and the whole mouse HMGB1 produced in HEK293 (1-215(HEK)) as a positive control were adjusted to 100 μg/ml and placed in the lower layer of a chemotaxis chamber to assess the migration-promoting activity on bone marrow mesenchymal stem cell line (MSC-1). Results
As positive controls, centrifuged supernatant of the skin of a one-day-old mouse (one individual) incubated in PBS at 4° C. for 12 hours, and the whole mouse HMGB1 (HMGB1(HEK_1-215)) produced in HEK293 were used. […]
On to B1, for which the migration-promoting activity result was “exhibited migration-promoting activity in a concentration-dependent manner”.
Turning to B2, the migration-promoting activity entry is listed as “exhibited migration-promoting activity in a concentration-dependent manner; also recorded: stronger as compared to 63-215”.

Staying with this test, now noted: peptides produced using HEK293, concentration not stated.
As to “1-49: peptide comprising the amino acid sequence of positions 1 to 49, produced using HEK293 (MGKGDPKKPRGKMSSYAFFVQTCREEHKKKHPDASVNFSEFSKKCSERW; UniProt P09429 1-49, looked up, fragment)”, the “activity of promoting the migration of MSC-1” value is listed as “showed the activity of promoting the migration of bone marrow mesenchymal stem line MSC-1”.
Regarding “1-50: peptide comprising the amino acid sequence of positions 1 to 50, produced using HEK293 (MGKGDPKKPRGKMSSYAFFVQTCREEHKKKHPDASVNFSEFSKKCSERWK; UniProt P63158 1-50, looked up, fragment)”, the “activity of promoting the migration of MSC-1” value is “showed the activity of promoting the migration of bone marrow mesenchymal stem line MSC-1”.
Same read-out and setting: with B3 the entry was “showed the activity of promoting the migration of bone marrow mesenchymal stem line MSC-1”.

The same test, now with this note: protein and peptides produced using HEK293 (mouse HMGB1), 50 μg/ml, 4 h, FIG. 2A.
On to B4, for which the migration-promoting activity entry is “did not show detectable migration-promoting activity”.
On the same count and under the same terms, then B5, with “showed migration-promoting activity”.

Still in this test, the particulars now being: synthetic peptides, 5 μM, FIGS. 8A and 8B.
As to “(11-29): synthetic peptide consisting of the amino acid sequence from positions 11 to 29 of HMGB1 (GKMSSYAFFVQTCREEHKK; UniProt P09429 11-29, looked up, fragment)”, the migration-promoting activity result is given as “strong migration-promoting activity”.
Still for that read-out and setting: then “(13-25): synthetic peptide consisting of the amino acid sequence from positions 13 to 25 of HMGB1 (MSSYAFFVQTCRE; UniProt P09429 13-25, looked up, fragment)”, with “weak activity”; and “(11-25): synthetic peptide consisting of the amino acid sequence from positions 11 to 25 of HMGB1 (GKMSSYAFFVQTCRE; UniProt P09429 11-25, looked up, fragment)”, with “weak activity”.
Turning to “(12-25): synthetic peptide consisting of the amino acid sequence from positions 12 to 25 of HMGB1 (KMSSYAFFVQTCRE; UniProt P09429 12-25, looked up, fragment)”, the migration-promoting activity result is “weak activity”.
On the same count and under the same terms, then “(12-30): synthetic peptide consisting of the amino acid sequence from positions 12 to 30 of HMGB1 (KMSSYAFFVQTCREEHKKK; UniProt P09429 12-30, looked up, fragment)”, with “strong migration-promoting activity”.
For the molecule “(10-25): synthetic peptide consisting of the amino acid sequence from positions 10 to 25 of HMGB1 (RGKMSSYAFFVQTCRE; UniProt P09429 10-25, looked up, fragment)”, the migration-promoting activity result was “strong migration-promoting activity”.
For the molecule “(11-28): synthetic peptide consisting of the amino acid sequence from positions 11 to 28 of HMGB1 (GKMSSYAFFVQTCREEHK; UniProt P09429 11-28, looked up, fragment)”, the migration-promoting activity entry was “strong migration-promoting activity”.
Take “(13-30): synthetic peptide consisting of the amino acid sequence from positions 13 to 30 of HMGB1 (MSSYAFFVQTCREEHKKK; UniProt P09429 13-30, looked up, fragment)”: the migration-promoting activity result is “strong migration-promoting activity”.
For “(15-25): synthetic peptide consisting of the amino acid sequence from positions 15 to 25 of HMGB1 (SYAFFVQTCRE; UniProt P09429 15-25, looked up, fragment)”, the migration-promoting activity result is “weak activity”.

The same test, now with this note: synthetic peptides, 10 μM and 5 μM, FIG. 9.
As for “(45-74): synthetic peptide consisting of the amino acids of positions 45 to 74 (CSERWKTMSAKEKGKFEDMAKADKARYERE; UniProt P09429 45-74, looked up, fragment)”, the migration-promoting activity result is “exhibited migration-promoting activity which was however weaker as compared to synthetic peptides (1-44) and (1-34)”.

Staying with this test, now noted: synthetic peptides, 100 μg/ml, positive control 1-215(HEK), FIG. 7.
Consider “(11-25): synthetic peptide consisting of the amino acid sequence from positions 11 to 25 of HMGB1 (GKMSSYAFFVQTCRE; UniProt P09429 11-25, looked up, fragment)”, for which the migration-promoting activity entry is listed as “found to have the activity”.
On the same count and under the same terms, then “(11-34): synthetic peptide consisting of the amino acid sequence from positions 11 to 34 of HMGB1 (GKMSSYAFFVQTCREEHKKKHPDA; UniProt P09429 11-34, looked up, fragment)”, with “activity comparable to or higher than that of the positive control”.
